Where two headings read alike, the source gives them in different places.

The target in assay [1] is T1, tankyrase 2 (TNKS2) (Homo sapiens, UniProt Q9H2K2).
T1 construct: catalytic fragment (human, recombinant, residues 849–1166)
The assay can be described thus: immunochemical dot-blot assay of PAR accumulation, […] NAD+; 4PL fit gave […]. Type of assay: biochemical.

Assay [2] concerns the target T1, tankyrase 2 (TNKS2). The assay is described as above. In kind it is biochemical. This is another data set of the same source.

T1 sequence (Q9H2K2 849-1166): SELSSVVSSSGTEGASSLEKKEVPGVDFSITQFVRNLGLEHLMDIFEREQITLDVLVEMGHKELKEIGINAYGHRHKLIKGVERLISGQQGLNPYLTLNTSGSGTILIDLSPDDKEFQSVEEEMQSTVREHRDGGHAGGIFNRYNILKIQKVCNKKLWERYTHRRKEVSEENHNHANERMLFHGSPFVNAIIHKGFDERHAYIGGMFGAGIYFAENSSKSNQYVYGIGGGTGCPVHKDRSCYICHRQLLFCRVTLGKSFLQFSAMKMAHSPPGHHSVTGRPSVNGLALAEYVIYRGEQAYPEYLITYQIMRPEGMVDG

Take `O=C(NCCNC(=O)c1cnccn1)c1ccc(-c2cc3ccccc3oc2=O)cc1` [A1]: the IC50 (in general, the midpoint of a concentration-inhibition curve) on tankyrase 2 (TNKS2) [1] is less than 0.01 µM.
Turning to `COc1ccc2oc(=O)c(-c3ccc(OCC(=O)NCc4cccnc4)cc3)cc2c1` [A3], the IC50 at tankyrase 2 (TNKS2) [2] was less than 10 µM.

These data come from article PMC7397142, “Discovery of Novel Tankyrase Inhibitors through Molecular Docking-Based Virtual Screening and Molecular Dynamics Simulation Studies” (Molecules, 2020).
